Laboratory results: US20050119284A1, “ANTIVIRAL AGENTS AND METHODS OF USE” (priority 2003, published 2005)
Several values for one entry are separate records, joined by “and”; a condition that tells them apart may be missing. Equal entries are not always repeated. Entries after “also recorded” stand apart in the source; their conditions may differ.

Legend:
MDBK cells [1] = test system: MDBK cells
[2] = test system: bovine viral diarrhea virus (BVDV); test: BVDV plaque assay in MDBK cells; type: cell-based; conditions: for Antiviral effect on BVDV in the presence of thymidine (in words): 1 mM thymidine, cytotoxicity blocked; for Effect on viral yield: MDBK cells with BVDV, without thymidine; for Antiviral effect on BVDV replication (in words): increasing concentrations; for Decrease in BVDV replication / viral titers: in the presence of 1 mM thymidine; for Pfu/microL Avg: average of three; for Pfu/microL: individual replicates
HCV 1 bN replicon [3] = conditions: 100 uM, 1 mM thymidine, 72 hours, Huh7
MDBK cells [4] = test: Host cell growth / cytotoxicity, mock-infected MDBK cells counted by flow cytometry; conditions: for Decrease in cell growth: confluent MDBK cells, concentrations used for the AZA/MPA comparison; for Cellular cytotoxicity / cell viability at antiviral concentrations: MDBK cells, concentrations assayed
[5] = given to mice; cited from earlier work
HCV 1 bN replicon [6] = conditions: two recent studies; cited from earlier work

Which “Effect on cell growth” value (MDBK cells [1]) does the source give for `Sc1ncnc2nc[nH]c12` [6-mercaptopurine] here?
The value was “decreased”.

And the “Effect on cell growth in the presence of thymidine” value (MDBK cells [1])?
Its value is “neither azathioprine metabolite had an appreciable effect”.

And the “Antiviral effect on BVDV in the presence of thymidine (in words)” value [2]?
Its value is “significantly reduced; also recorded: still possessed this antiviral effect”.

What about the “Effect on viral yield” value [2] of the same compound?
The value was “decreased”.

And the “Antiviral effect on BVDV replication (in words)” value ([2]; MDBK cells, listed as 6MP)?
Its value is “sensitive; also recorded: specifically inhibited”.

And the “Decrease in BVDV replication / viral titers” value [2]?
The value was 2 log.

Which “Effect on cell growth” value (MDBK cells [1]) does the source give for `CSc1ncnc2nc[nH]c12` [6-methyl mercaptopurine] here?
Its value is “no effect”.

And the “Effect on viral yield” value [2]?
The value was “no effect”.

What does the source list for `Nc1nc2nc[nH]c2c(=S)[nH]1` [6-thioguanine]?
Effect on cell growth (MDBK cells [1]): decreased; Effect on cell growth in the presence of thymidine (MDBK cells [1]): neither azathioprine metabolite had an appreciable effect; Antiviral effect on BVDV in the presence of thymidine (in words) [2]: did not; Effect on viral yield [2]: decreased; Antiviral effect on BVDV replication (in words) ([2]; MDBK cells): no antiviral affect; Decrease in BVDV replication / viral titers [2]: did not

With `OC[C@H]1O[C@@H](n2cnc3c(S)ncnc32)[C@H](O)[C@@H]1O` [6TI, 6 thioinosine] as the compound, how does the “Antiviral properties relative to 6MP” value ([2]; BVDV replication, FIG. 11) read?
The value was 2-3 fold.

With `Cn1cnc([N+](=O)[O-])c1Sc1ncnc2nc[nH]c12` [AZA, azathioprine] as the compound, how does the “Amount of replicon compared to no drug” value (HCV 1 bN replicon [3]) read?
The value was about 50%.

And the “Increase in number of cycles to reach critical threshold (Ct) compared to no drug” value (HCV 1 bN replicon [3])?
The value was about 1 cycle.

And the “Antiviral effect on BVDV in the presence of thymidine (in words)” value [2]?
Its value is “the majority of the antiviral effect was maintained; also recorded: still occurred”.

And the “Inhibition of viral replication relative to inhibition of cell growth” value ([2]; MDBK cells, increasing AZA, 72 hours)?
Its value is 10-100 fold.

What about the “Antiviral effect on BVDV replication (in words)” value ([2]; MDBK cells) of the same compound?
Its value is “sensitive; also recorded: specifically inhibited”.

And the “Decrease of BVDV replication relative to MPA” value ([2]; at doses that achieved similar cytoxicity)?
Its value is 10 fold.

And the “Virus produced per living cell, compared to cells grown in MPA” value ([2]; confluent MDBK cells, concentrations causing similar decrease in cell growth)?
Its value is 12%.

And the “Amount of BVDV virus generated, AZA versus MPA” value ([2]; confluent MDBK cells, doses allowing similar cellular growth, 72 hours)?
Its value is “significantly less”.

And the “Decrease in BVDV replication / viral titers” value [2]?
The value was “two”.

What about the “Decrease in cell growth” value (MDBK cells [4]) of the same compound?
The value was about 50%.

What does the source list for `COc1c(C)c2c(c(O)c1C/C=C(\C)CCC(=O)O)C(=O)OC2` [MPA, mycophenolate]?
Effect on cell growth (MDBK cells [1]): killed all the cells; Decrease in cell growth (MDBK cells [4]): ~50%

Which results are given for `CC(=O)/C=C\Sc1ncnc2[nH]cnc12` [cis-AVTP, cis-6-(2-acetylvinylthio) purine]?
Antiviral effect on BVDV in the presence of thymidine (in words) [2]: still occurs; Pfu/microL Avg ([2]; 10 microM): 2 Pfu/microL; Pfu/microL ([2]; 10 microM, listed as cis): 1.4 Pfu/microL and 2.5 Pfu/microL and 2.1 Pfu/microL; Pfu/microL Avg ([2]; 100 microM): 0.35 Pfu/microL; Pfu/microL ([2]; 100 microM, listed as cis): 0.34 Pfu/microL and 0.35 Pfu/microL and 0.36 Pfu/microL; Antiviral effect on BVDV replication (in words) ([2]; MDBK cells): sensitive; also recorded: significant anti-viral activity; Antiviral effect on BVDV replication (in words) ([2]; MDBK cells, listed as cisAVTP): able to inhibit; Cellular cytotoxicity / cell viability at antiviral concentrations (MDBK cells [4]): without cellular cytoxicity; Cellular cytotoxicity / cell viability at antiviral concentrations (MDBK cells [4]; listed as cisAVTP): did not affect overall cell viability; Levels of 6MP in the liver and gastrointestinal tract [5]: high levels; Side effects [5]: no significant side effects

Which “Antiviral (Hepatitis GB) or anti-HCV replicon activity” value (HCV 1 bN replicon [6]) does the source give for `NC(=O)c1ncn([C@@H]2O[C@H](CO)[C@@H](O)[C@H]2O)n1` [ribavirin] here?
The value was “weak”.

For `CC(=O)/C=C/Sc1ncnc2[nH]cnc12` [trans-AVTP, trans-6-(2-acetylvinylthio) purine], which “Antiviral activity compared between isomers” value ([2]; 10 uM) is on record?
Its value is “less antiviral than cis-AVTP”.

What about the “Pfu/microL Avg” value ([2]; 10 microM) of the same compound?
Its value is 65.67 Pfu/microL.

What about the Pfu/microL ([2]; 10 microM) of the same compound?
Its Pfu/microL is 53 Pfu/microL and 73 Pfu/microL and 71 Pfu/microL.

What about the “Pfu/microL Avg” value ([2]; 100 microM) of the same compound?
Its value is 0.33 Pfu/microL.

What about the Pfu/microL ([2]; 100 microM) of the same compound?
The Pfu/microL was 0.32 Pfu/microL and 0.38 Pfu/microL and 0.29 Pfu/microL.
